# Molecular target: T1, human recombinant ROCK II (Homo sapiens, UniProt O75116)
# T1 construct: recombinant human ROCK-II residues 11-552; His6 (N); purchased Millipore GmbH, Schwalbach, Germany
# Test: Determination of Rho kinase inhibition (ROCK II, Caliper peptide phosphorylation assay)
# Assay type: biochemical
# Conditions: respective form (salt or free base) as obtained in the examples, 60 min at 32° C.
# Method: To measure Rho-kinase inhibition, IC50 values were determined according to the following protocol:
# Active human recombinant ROCK II (N-terminal His6-tagged recombinant human ROCK-II residues 11-552) was purchased from Millipore GmbH, Schwalbach, Germany. The peptide substrate, Fluorescein-[…]-COOH, was obtained from JPT Peptide Technologies, Berlin, Germany. Adenosine-5′-triphosphate (ATP), bovine serum albumine (BSA), dimethylsulphoxide (DMSO), 4-(2-hydroxyethyl)piperazine-1-ethanesulfonic acid (Hepes), Brij-35, dithiothreitol (DTT) and Pluronic F-68 were purchased from Sigma-Aldrich, Munich, Germany. Tris(hydroxymethyl)-aminomethane (Tris), magnesium chloride, NaOH, 1M HCl and EDTA were obtained from Merck Biosciences, Darmstadt, Germany. “Complete” protease inhibitor was from Roche Diagnostics, Mannheim, Germany. Test compounds were diluted to the appropriate concentrations in buffer 1 (25 mM Tris-HCl, pH 7.4, 5 mM MgCl2, 2 mM DTT, 0.02% (w/v) BSA, 0.01% Pluronic F-68 and 3% DMSO). The ROCK II enzyme was diluted to a concentration of 100 ng/mL in buffer 2 (25 mM Tris-HCl, pH 7.4, 5 mM MgCl2, 2 mM DTT and 0.02% (w/v) BSA). The peptide substrate and ATP were diluted to concentrations of 3 μM and 120 μM, respectively, in the buffer 2. Two μl of the compound solution were mixed with 2 μl of the diluted enzyme in a 384-well small volume microtiter plate (Greiner, Bio-One, Frickenhausen, Germany), and the kinase reaction was initiated by addition of 2 μl of the solution containing peptide substrate and ATP. After 60 min incubation at 32° C., the reaction was stopped by addition of 20 μl of a solution containing 100 mM Hepes-NaOH, pH 7.4, 0.015% (v/v) Brij-35, 45 mM EDTA and 0.227% chip coating reagent 1 (Caliper Lifescience Inc, Hopkinton, Mass.). Phosphorylation of the substrate peptide was then detected on a Caliper 3000 instrument essentially as described by Pommereau et al (J. Biomol. Screening 2004, 9(5), 409-416). Separation conditions were as follows: Pressure −1.3 psi, upstream voltage −1562 V, downstream voltage −500 V, sample sip time 200 ms. Positive controls (buffer 1 instead of compound) and negative controls (buffer 1 instead of compound and buffer 2 instead of ROCK II) were run in parallel on each plate.
# The following products/compounds were tested in said assay by using the respective form (salt or free base) obtained as in the examples described above and the following activities were measured
# T1 sequence (O75116 11-552): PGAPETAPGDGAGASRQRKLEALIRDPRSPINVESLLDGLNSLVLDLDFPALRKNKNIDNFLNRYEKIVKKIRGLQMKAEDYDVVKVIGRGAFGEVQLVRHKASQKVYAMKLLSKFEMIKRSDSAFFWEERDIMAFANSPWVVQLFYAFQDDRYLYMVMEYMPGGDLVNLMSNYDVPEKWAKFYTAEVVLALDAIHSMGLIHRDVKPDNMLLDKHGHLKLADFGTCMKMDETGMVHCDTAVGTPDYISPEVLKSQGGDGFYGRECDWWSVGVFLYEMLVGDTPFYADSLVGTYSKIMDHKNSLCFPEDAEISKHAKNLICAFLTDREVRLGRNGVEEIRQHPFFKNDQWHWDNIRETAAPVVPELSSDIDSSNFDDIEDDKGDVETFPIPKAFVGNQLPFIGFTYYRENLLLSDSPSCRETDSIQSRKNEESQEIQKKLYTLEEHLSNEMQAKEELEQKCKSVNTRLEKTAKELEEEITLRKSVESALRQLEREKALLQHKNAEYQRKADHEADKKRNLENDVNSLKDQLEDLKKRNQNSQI
Compound,IC50 [nM],pIC50
"CCOC1(C(N)CC)CCC(Oc2cc3cc[nH]c(=O)c3cc2Cl)CC1 (mixture of isomers) [Example 60, 6-[4-(1-Amino-propyl)-4-ethoxy-cyclohexyloxy]-7-chloro-2H-isoquinolin-1-one]",10 to 100,–
"CCC(N)C1(CC(C)C)CCC(Oc2cc3cc[nH]c(=O)c3cc2Cl)CC1 (single isomer, unassigned) [Example 29, 6-[4-(1-Amino-propyl)-4-isobutyl-cyclohexyloxy]-7-chloro-2H-isoquinoIin-1-one]",10 to 100,–
"CC(C)C1(C(N)c2nccs2)CCC(Oc2cc3cc[nH]c(=O)c3cc2Cl)CC1 (single isomer, unassigned) [Example 46, 6-[4-(Amino-thiazol-2-yl-methyl)-4-isopropyl-cyclohexyl-oxy]-7-chloro-2H-isoquinolin-1-one]",100 to 1000,–
"CCC(N)C1(C(F)(F)F)CCC(Oc2cc3cc[nH]c(=O)c3cc2Cl)CC1 (single isomer, unassigned) [Example 104, 6-[4-(1-Amino-propyl)-4-trifluoromethyl-cyclohexyloxy]-7-chloro-2H-isoquinolin-1-one]",100 to 1000,–
"CCC(N)[C@]1(CC)CC[C@H](Oc2c(F)cc3c(=O)[nH]ccc3c2C)CC1 (stereo partly drawn) [Example 51, cis-6-[4-(1-Amino-propyl)-4-ethyl-cyclohexyloxy]-7-fluoro-5-methyl-2H-isoquinolin-1-one]",100 to 1000,–
"CCC(N)[C@]1(CC)CC[C@H](Oc2cc3ccncc3cc2C)CC1 (stereo partly drawn) [Example 56, cis-1-[1-Ethyl-4-(7-methyl-isoquinolin-6-yloxy)-cyclohexyl]-propylamine]",100 to 1000,–
"NC(c1ccccc1)[C@]1(CC2CC2)CC[C@H](Oc2cc3cc[nH]c(=O)c3cc2Cl)CC1 (stereo partly drawn) [Example 63, cis-6-[4-(Amino-phenyl-methyl)-4-cyclopropylmethyl-cyclohexyloxy]-7-chloro-2H-isoquinolin-1-one]",100 to 1000,–
"CCC(N)[C@]1(CC2CCOCC2)CC[C@H](Oc2cc3cc[nH]c(=O)c3cc2Cl)CC1 (stereo partly drawn) [Example 67, cis-6-[4-(1-Amino-propyl)-4-(tetrahydro-pyran-4-ylmethyl)-cyclohexyloxy]-7-chloro-2H-isoquinolin-1-one]",10 to 100,–
"CC[C@]1(C(C)N)CC[C@@H](Oc2c(F)cc3c(=O)[nH]ccc3c2C)CC1 (stereo partly drawn) [Example 79, cis-6-[4-(1-Amino-ethyl)-4-ethyl-cyclohexyloxy]-7-fluoro-5-methyl-2H-isoquinolin-1-one]",100 to 1000,–
"CC[C@]1(C(C)N)CC[C@@H](Oc2cc3c(Cc4ccccc4)c[nH]c(=O)c3cc2Cl)CC1 (stereo partly drawn) [Example 81, cis-6-[4-(1-Amino-ethyl)-4-ethyl-cyclohexyloxy]-4-benzyl-7-chloro-2H-isoquinolin-1-one]",100 to 1000,–
"CC[C@]1(C(C)N)CC[C@@H](Oc2cc3ccncc3cc2Br)CC1 (stereo partly drawn) [Example 82, cis-1-[4-(7-Bromo-isoquinolin-6-yloxy)-1-ethyl-cyclohexyl]-ethylamine]",100 to 1000,–
"CC[C@]1(C(C)N)CC[C@@H](Oc2ccc3cnccc3c2Cl)CC1 (stereo partly drawn) [Example 84, cis-1-[4-(5-Chloro-isoquinolin-6-yloxy)-1-ethyl-cyclohexyl]-ethylamine]",100 to 1000,–
"CCC(NCc1ccccc1)C1(CC)CCC(Oc2cc3cc[nH]c(=O)c3cc2Cl)CC1 (stereo not drawn) [Example 86, cis-6-[4-(1-Benzylamino-propyl)-4-ethyl-cyclohexyloxy]-7-chloro-2H-isoquinolin-1-one]",–,+++++ (6.0 ≦ pIC50 < 7.0)
"CCCCNC(CC)[C@]1(CC)CC[C@H](Oc2cc3cc[nH]c(=O)c3cc2Cl)CC1 (stereo partly drawn) [Example 88, cis-6-[4-(1-Butylamino-propyl)-4-ethyl-cyclohexyloxy]-7-chloro-2H-isoquinolin-1-one]",100 to 1000,–
"CCC[C@]1(C(C)N)CC[C@@H](Oc2cc3ccnc(N)c3cc2Cl)CC1 (stereo partly drawn) [Example 100, cis-6-[4-(1-Amino-ethyl)-4-propyl-cyclohexyloxy]-7-chloro-isoquinolin-1-ylamine]",100 to 1000,–

# Further lines, results first:
IC50 [nM],pIC50,Compound
≤ 10,–,"CCC(N)[C@]1(C)CC[C@H](Oc2cc3cc[nH]c(=O)c3cc2Cl)CC1 (mixture of isomers) [Example 26, cis-6-[4-(1-Amino-propyl)-4-methyl-cyclohexyloxy]-7-chloro-2H-isoquinolin-1-one]"
100 to 1000,–,"CCC(N)C1(COC(C)C)CCC(Oc2cc3cc[nH]c(=O)c3cc2Cl)CC1 (single isomer, unassigned) [Example 20, 6-[4-(1-Amino-propyl)-4-isopropoxymethyl-cyclohexyloxy]-7-chloro-2H-isoquinolin-1-one]"
10 to 100,–,"CCC(N)C1(C2CCCC2)CCC(Oc2cc3cc[nH]c(=O)c3cc2Cl)CC1 (single isomer, unassigned) [Example 24, 6-[4-(1-Amino-propyl)-4-cyclopentyl-cyclohexyloxy]-7-chloro-2H-isoquinolin-1-one]"
100 to 1000,–,"NC(C(F)(F)F)C1(CC2CC2)CCC(Oc2cc3cc[nH]c(=O)c3cc2Cl)CC1 (single isomer, unassigned) [Example 40, 6-[4-(1-Amino-2,2,2-trifluoro-ethyl)-4-cyclo-propylmethyl-cyclohexyloxy]-7-chloro-2H-isoquinolin-1-one]"
10 to 100,–,"CCC1(C(N)CCOC)CCC(Oc2cc3cc[nH]c(=O)c3cc2Cl)CC1 (single isomer, unassigned) [Example 98, 6-[4-(1-amino-3-methoxy-propyl)-4-ethyl-cyclohexyloxy]-7-chloro-2H-isoquinolin-1-one]"
10 to 100,–,"CCC(N)C1(C2CCOCC2)CCC(Oc2cc3cc[nH]c(=O)c3cc2Cl)CC1 (single isomer, unassigned) [Example 105]"
100 to 1000,–,"CCCC[C@]1(C(N)CC)CC[C@@H](Oc2cc3c(Cc4ccccc4)c[nH]c(=O)c3cc2Cl)CC1 (stereo partly drawn) [Example 39, cis-6-[4-(1-Amino-propyl)-4-butyl-cyclohexyloxy]-4-benzyl-7-chloro-2H-isoquinolin-1-one]"
100 to 1000,–,"CCC(N)[C@]1(CC)CC[C@H](Oc2c(C)cc3cnccc3c2C)CC1 (stereo partly drawn) [Example 53, cis-1-[4-(5,7-Dimethyl-isoquinolin-6-yloxy)-1-ethyl-cyclohexyl]-propylamine]"
100 to 1000,–,"CCC(N)[C@]1(CC)CC[C@H](Oc2c(F)cc3cnccc3c2C)CC1 (stereo partly drawn) [Example 57, cis-1-[1-Ethyl-4-(7-fluoro-5-methyl-isoquinolin-6-yloxy)-cyclohexyl]-propylamine]"
≤ 10,–,"CCC(N)[C@]1(CCCC(F)(F)F)CC[C@H](Oc2cc3cc[nH]c(=O)c3cc2Cl)CC1 (stereo partly drawn) [Example 66, cis-6-[4-(1-Amino-propyl)-4-(4,4,4-trifluoro-butyl)-cyclohexyloxy]-7-chloro-2H-isoquinolin-1-one]"
≤ 10,–,"CCOC[C@]1(C(N)CC)CC[C@@H](Oc2cc3cc[nH]c(=O)c3cc2Cl)CC1 (stereo partly drawn) [Example 71, cis-6-[4-(1-Amino-propyl)-4-ethoxymethyl-cyclohexyloxy]-7-chloro-2H-isoquinolin-1-one]"
100 to 1000,–,"CC[C@]1(C(C)N)CC[C@@H](Oc2c(F)cc3cnccc3c2C)CC1 (stereo partly drawn) [Example 80, cis-1-[1-Ethyl-4-(7-fluoro-5-methyl-isoquinolin-6-yloxy)-cyclohexyl]-ethylamine]"
100 to 1000,–,"CCC(NCC1CC1)[C@]1(CC)CC[C@H](Oc2cc3cc[nH]c(=O)c3cc2Cl)CC1 (stereo partly drawn) [Example 85, cis-7-Chloro-6-{4-[1-(cyclopropylmethyl-amino)-propyl]-4-ethyl-cyclohexyloxy}-2H-isoquinolin-1-one]"
100 to 1000,–,"CCC(NCC(C)C)[C@]1(CC)CC[C@H](Oc2cc3cc[nH]c(=O)c3cc2Cl)CC1 (stereo partly drawn) [Example 87, cis-7-Chloro-6-[4-ethyl-4-(1-isobutylamino-propyl)-cyclohexyloxy]-2H-isoquinolin-1-one]"
100 to 1000,–,"CC(C)C(N)C1(C(C)C)CCC(Oc2cc3cc[nH]c(=O)c3cc2Cl)CC1 (stereo not drawn) [Example 89, 6-[4-(1-Amino-2-methyl-propyl)-4-isopropyl-cyclohexyloxy]-7-chloro-2H-isoquinolin-1-one]"

# From patent US8399482B2, “6-substituted isoquinolines and isoquinolinones” (Sanofi, priority 2008, dated 2013)
